From patent US20150258052A1, “METHODS OF USING FEXARAMINE AND AGENTS THAT INCREASE SYMPATHETIC NERVOUS SYSTEM ACTIVITY TO PROMOTE BROWNING OF WHITE ADIPOSE TISSUE” (Salk Institute for Biological Studies, priority 2014, published 2015)

Assays:
Type in all cases: in vivo
[1] = tested on: FGF15 signaling and bile acid composition; test: FGF15 signaling, hepatic bile acid genes, serum bile acid composition and intestinal barrier in Fex-treated HFD mice
Description: FIGS. 7A-7H show a comparative expression chart and bar charts illustrating that fexaramine increased endogenous FGF15 signaling and changes in BA composition. Mice were fed HFD for 14 weeks and then administered daily oral injections of vehicle or fexaramine (100 mg/kg) for 5 weeks with HFD. In the bar graphs, open bars represent vehicle treatment and solid bars represent fexaramine treatment, and data represent the mean±STD. Statistical analysis was performed with the Student's t test (*p<0.05, **p<0.01).
FIG. 8 is a bar graph showing hepatic Cyp7a1 levels determined by ELISA. Data represent the mean±SD. Statistical analysis was performed with the Student's t test. *p<0.05, **p<0.01.
Mice fed a HFD for 14 weeks were maintained on a HFD and treated with vehicle or fexaramine (100 mg/kg/day per os for 5 week). Serum bile acid composition was determined by mass spectrometry. N.D. not determined.
FXR activation has been reported to enhance mucosal defense gene expression and intestinal barrier function (Inagaki et al., Proc Natl Acad Sci USA 103:3920-3925, 2006; Gadaleta., et al. Gut 60:463-472, 2011).

DIO mice = test: Hyperinsulinemic-euglycemic clamp and liver analysis in Fex-treated DIO mice
Description: Mice were fed HFD for 14 weeks and then subjected to daily PO injection of vehicle or fexaramine (100 mg/kg) for 5 weeks with HFD. In the bar graphs, open bars are vehicle, solid bars are fexaramine, and data represent the mean±STD. Statistical analysis was performed with the Student's t test (*p<0.05, **p<0.01).
FIGS. 15I-15K are a line graph and two bar graphs showing the effect of fexaramine treatment on body weight, insulin-stimulated GDR, and fasting insulin levels. Mice were fed HFD for 14 weeks, and then administered daily oral injections of vehicle or fexaramine (100 mg/kg) for 3 weeks with HFD. The mice treated with fexaramine were initially heavier (by 2-3 grams). Three weeks after treatment, a clamp study was performed on the mice. Data represent the mean±STD. Statistical analysis was performed with the Student's t test (*p<0.05, **p<0.01).
Liver insulin resistance has been linked to obesity-induced hepatic steatosis (Cohen et al., Science 332:1519-1523, 2011). […] Furthermore, decreased serum alanine aminotransferase (ALT) levels were measured in Fex-treated mice, indicating reduced HFD-induced liver damage (FIG. 15H). Thus, in DIO mice Fex promotes hepatic insulin sensitization, reduced steatosis, improved metabolic markers, decreased ALT and enhanced BAT activity.

[2] = tested on: brown adipose tissue (BAT); test: Energy expenditure and brown adipose tissue (BAT) analysis in Fex-treated DIO mice
Description: Mice were fed HFD for 14 weeks and then administered vehicle or fexaramine (100 mg/kg) daily by oral administration for 5 weeks with HFD. Data represent the mean±STD. Statistical analysis was performed with the Student's t test (*p<0.05, **p<0.01).
FIG. 6M is a bar chart showing the effect of fexaramine on respiratory exchange ratio (RER). Mice were fed on HFD for 14 weeks, and then administered daily oral injections of vehicle or fexaramine (100 mg/kg) for 5 weeks with HFD.
FIG. 6N is a bar graph showing the effect of fexaramine administration on serum lactate concentrations. Mice were fed on HFD for 14 weeks, and then administered daily oral injections of vehicle or fexaramine (100 mg/kg) for 5 weeks with HFD. […] Data represent the mean±STD. Statistical analysis was performed with the Student's t test (*p<0.05, **p<0.01).
(FIG. 6E). […] Gene expression analysis confirmed the induction of ERRγ, PGC-1α, and PGC-1β, as well as a number of their target genes involved in thermogenesis, mitochondrial biogenesis, and fatty acid oxidation in BAT (FIG. 6G).

[3] = DIO mice, chronic Fex treatment
[4] = DIO mice, 100 mg/kg PO 5 weeks, listed as fexaramine, 100 mg/kg

Structure (SMILES): COC(=O)/C=C/c1cccc(N(Cc2ccc(-c3ccc(N(C)C)cc3)cc2)C(=O)C2CCCCC2)c1 [Fex, fexaramine]
- FGF15 expression in intestine (RNA-Seq) ([1]; 100 mg/kg PO 5 weeks): dramatically up-regulated
- bile acid pool size (total serum BA levels) ([1]; 100 mg/kg PO 5 weeks): reducing the bile acid pool size
- ratio of unconjugated to conjugated cholic acid ([1]; 100 mg/kg PO 5 weeks): remarkably increased
- circulating FGF15 ([1]; 100 mg/kg PO 5 weeks, serum): increase in circulating FGF15
- expression of liver FXR target genes SHP and BSEP ([1]; chronic Fex treatment): not altered
- hepatic CYP7A1 expression (mRNA and protein) ([1]; chronic Fex treatment): significantly repressed
- hepatic expression of CYP8B1 and CYP27A1 ([1]; chronic Fex treatment): not affected
- expression of mucosal defense genes Occludin and Muc2 ([1]; chronic Fex-treatment): increased expression
- lipid droplets in liver (histology, hepatic steatosis) (DIO mice; DIO mice, 100 mg/kg PO 5 weeks): reduction in lipid droplets
- serum alanine aminotransferase (ALT) levels (DIO mice; DIO mice, 100 mg/kg PO 5 weeks): decreased
- hepatic expression of gluconeogenic and lipogenic genes (DIO mice; [3]): reduced hepatic expression
- hepatic triglycerides (DIO mice; [3]): marked decrease
- insulin-mediated suppression of HGP (DIO mice; hyperinsulinemic-euglycemic clamp, versus control DIO mice): marked increase
- basal HGP, GDR, IS-GDR, FFA suppression and fasting insulin levels (DIO mice; weight-matched cohorts, hyperinsulinemic-euglycemic clamp): No differences
- OXPHOS gene expression changes in inguinal, gonadal and brown adipose depots (RNA-sequencing) ([2]; DIO mice, 100 mg/kg PO 5 weeks): selectively enhance OXPHOS activity only in BAT
- PKA activity in BAT ([2]; DIO mice, 100 mg/kg PO 5 weeks): increased PKA activity
- accumulation of lipid vesicles in BAT (histology) ([2]; DIO mice, 100 mg/kg PO 5 weeks): markedly reduced
- ambulatory counts (activity) ([2]; DIO mice, 100 mg/kg PO 5 weeks): more active than control mice
- carbon dioxide production (VCO2) ([2]; DIO mice, 100 mg/kg PO 5 weeks): exhaled more carbon dioxide
- gene expression of ERRγ, PGC-1α, PGC-1β and target genes in BAT ([2]; DIO mice, 100 mg/kg PO 5 weeks): induction
- oxygen consumption (VO2) ([2]; DIO mice, 100 mg/kg PO 5 weeks): consistently higher oxygen consumption
- phosphorylation level of p38 in BAT ([2]; DIO mice, 100 mg/kg PO 5 weeks): increased the phosphorylation level of p38
- serum lactate levels ([2]; DIO mice, 100 mg/kg PO 5 weeks, 100 mg/kg): significantly reduced
- respiratory exchange ratio (RER) [2, 4]: No changes were observed
- serum lactate levels [2, 4]: significantly decreased
- food intake ([2]; DIO mice, first week of treatment): not attributable to difference in food intake
- DIO2 (downstream target of TGR5) in BAT ([2]; oral Fex): induce DIO2
